What was measured:
[1] = system: diabetic nephropathy mice; assay: Ex vivo autoradiography of kidneys after tail vein injection; conditions: mouse
Text: The spontaneous type 2 diabetes mice model was developed using the db/db homozygous mice (BKS.Cg-Dock7m+/+LeprdbJ; JAX® Mice Strain Code 607) discovered by the Jackson Laboratory in the United States. […] Their pathogenesis is very similar to that of subjects with type 2 diabetes. The control group mice were either normal mice (m/m) or heterozygous mice (m/db).
Sixty minutes later, the mice were euthanized by dislocation, and their kidneys were removed and rapidly frozen in dry ice. 20 µm frozen sections were prepared using a cryostat (Reward, RWD Minux FS800). Frozen sections were held in contact with the developing plate (FUJIFILM; BAS-IP SR 2025E) for 2 hours, and images were read and quantitatively analyzed using an autoradiography scanner (CR-35 Bio; Elysia-Raytest).

[2] = system: db/db model mice; assay: PET in vivo imaging; conditions: 15 MBq intravenous, 90 minutes acquisition, FIG.3
Protocol: PET scans were performed using an Inveon scanner (Siemens Medical Solutions Knoxville, TN, USA). Mice (m/m and db/db mice) were anesthetized with 1.5% (v/v) isoflurane and then fixed in the center of the FOV of a PET scanner. Immediately after intravenous injection of ^18F-KIDJI-004 (15 MBq), 90 minutes of radiation signals were acquired in three-dimensional mode. The energy window is 350-750 keV. After the PET scan was completed, mice were intravenously injected with iodofol (35%) (Optiray 350; Guerbet) at a dose of 5 µL/g body weight, followed immediately by a 30-second CT scan (X-ray source: 70 kV/88 mA, FOV: 60 mm). Mice were anesthetized with 1.5% (v/v) isoflurane during PET and CT scans.

[3] = system: db/db model mice; assay: SPECT in vivo imaging; conditions: 11.1 MBq via the tail vein, acquisition up to 2 hours, FIG.3
Protocol: SPECT scans were performed using the nanoScan SPECT/CT scanner (Mediso Medical Imaging Systems, Hungary). […] Immediately afterward, the radiation signal was acquired in three-dimensional mode every 30 minutes for up to 2 hours. The energy window is set to 360-700 keV. After completing the SPECT scan, mice were injected with iodofol (Optiray 350; Guerbet) via the tail vein at a dose of 5 µL/g body weight, followed immediately by a 30-second CT scan (X-ray source: 50 kV/980 µA, 480 projections; mice were anesthetized with 1.5% (v/v) isoflurane during both the SPECT and CT scans).

accumulation in the renal pelvis of diabetic nephropathy mice [1]	accumulation in the kidneys of normal mice [2]	accumulation in the renal pelvis of the kidneys of db/db model mice [2]	accumulation in the kidneys of normal mice [3]	accumulation in the renal pelvis of the kidneys of db/db model mice [3]	SMILES
significant accumulation					C[C@H]1Cc2c(nnn2-c2ncccn2)CN1C(=O)c1ccnc(C(F)(F)F)c1[18F] [^18F-KIDJI-003, (S)-(3-fluoro-2-(trifluoromethyl)pyridin-4-yl)(6-methyl-1-(pyrimidin-2-yl)-1,4,6,7-tetrahydro-5H-[1,2,3]triazolo[4,5-c]pyridin-5-yl) methyl ketone]
	no significant accumulation	significantly accumulated			Cc1cc(C(=O)N2Cc3nnn(-c4ncccn4)c3C[C@@H]2C)cc([18F])n1 [^18F-KIDJI-004, (S)-(2-fluoro-6-methylpyridin-4-yl)(6-methyl-1-(pyrimidin-2-yl)-1,4,6,7-tetrahydro-5H-[1,2,3]triazolo[4,5-c]pyridin-5-yl) methyl ketone]
			no significant accumulation	significantly accumulated	O=C(c1ccc([131I])cc1)N1CCc2c(nnn2-c2ncccn2)C1 [^131I-KIDJI-007, (4-iodophenyl)(1-(pyrimidin-2-yl)-1,4,6,7-tetrahydro-5H-[1,2,3]triazolo[4,5-c]pyridin-5-yl) methyl ketone]
			no significant accumulation	significantly accumulated	COc1ccc(C(=O)N2CCc3c(nnn3-c3ncccn3)C2)cc1[131I] [^131I-KIDJI-008, (3-iodo-4-methoxyphenyl)(1-(pyrimidin-2-yl)-1,4,6,7-tetrahydro-5H-[1,2,3]triazolo[4,5-c]pyridin-5-yl) methyl ketone]
			no significant accumulation	significantly accumulated	O=C(c1ccc([N+](=O)[O-])cc1[131I])N1CCc2c(nnn2-c2ncccn2)C1 [^131I-KIDJI-009, (2-iodo-4-nitro)(1-(pyrimidin-2-yl)-1,4,6,7-tetrahydro-5H-[1,2,3]triazolo[4,5-c]pyridin-5-yl) methyl ketone]
			no significant accumulation	significantly accumulated	O=C(c1ccc([131I])cc1F)N1CCc2c(nnn2-c2ncccn2)C1 [^131I-KIDJI-010, (2-fluoro-4-iodophenyl)(1-(pyrimidin-2-yl)-1,4,6,7-tetrahydro-5H-[1,2,3]triazolo[4,5-c]pyridin-5-yl) methyl ketone]
